Results taken from patent publication US4558122A, “Stable s-adenosylmethionine derivatives, the process for their preparation, and therapeutic compositions which contain them as active principle” (Bioresearch S.P.A., priority 1981, dated 1985).
Where two headings read alike, the source gives them in different places.

What was measured:
[1] = physchem; type: physicochemical; details: water
[2] = absorption "in situ" (intestinal sacs); type: in vivo, rat; details: rat, in situ intestinal sacs, 2 mg in 1 ml physiological solution, rats, H2 SO4 salts, m 0 or 1, n 3, read-out: PRODUCT ABSORPTION in sacs
Protocol: (§1) In the 1st test, known as "in situ" (intestinal sacs), 2 mg of each product to be tested in 1 ml of physiological solution were placed in intestinal sacs provided in rats under ether anesthesia. The rats were killed after 2 hours, and the residual content of the sac (wall+content) was analysed. In the 2nd test, portions of intestine turned inside out were used, incubated at 37° C. in accordance with Krebs Ringer against an external product concentration of 10^-4 M. The products were all salified with H2 SO4 to give salts in which m was 0 or 1 and n was 3.

[3] = system: portions of intestine turned inside out; assay: absorption by portions of intestine turned inside out; type: in vitro ADME
Protocol: In the 2nd test, portions of intestine turned inside out were used, incubated at 37° C. in accordance with Krebs Ringer against an external product concentration of 10^-4 M. The products were all salified with H2 SO4 to give salts in which m was 0 or 1 and n was 3.

[4] = system: intestinal sacs; assay: absorption "in situ" (intestinal sacs); type: in vivo, rat; details: 2 mg in 1 ml physiological solution, rats, 2 hours; H2 SO4 salts, m 0 or 1, n 3
Protocol: as §1

[5] = stability in the dry state at 45° C.; type: physicochemical
[6] = 37° C., Krebs Ringer, external concentration 10^-4 M, H2 SO4 salts, m 0 or 1, n 3
[7] = 45° C., 60 days, read-out: Degradation at 45° C. after 60 days
[8] = 45° C., 120 days, read-out: Degradation at 45° C. after 120 days
[9] = 45° C., 180 days, read-out: Degradation at 45° C. after 180 days
[10] = 45° C., 240 days, read-out: Degradation at 45° C. after 240 days
[11] = 45° C., 360 days, read-out: Degradation at 45° C. after 360 days

CCOC(=O)[C@@H](N)CC[S+](C)C[C@H]1O[C@@H](n2cnc3c(N)ncnc32)[C@H](O)[C@@H]1O (some centres unmarked) [C2 H5, SAM ethyl ester]
degraded at 0.25 h ([1]; pH 2): 2%
degraded at 0.5 h ([1]; pH 2): 4%
degraded at 1 h ([1]; pH 2): 8%
degraded at 4 h ([1]; pH 2): 35%
degraded at 0.25 h ([1]; pH 3): 3%
degraded at 0.5 h ([1]; pH 3): 6%
degraded at 1 h ([1]; pH 3): 13%
degraded at 4 h ([1]; pH 3): 55%
degraded at 0.25 h ([1]; pH 4): 5%
degraded at 0.5 h ([1]; pH 4): 9%
degraded at 1 h ([1]; pH 4): 19%
degraded at 4 h ([1]; pH 4): 80%
Fa at 2 h [2]: 59%
PRODUCT ABSORPTION intestine inside out [3, 6]: 0.061 nmoles/h/mg tissue

C[S+](CC[C@H](NC(=O)CCC(=O)O)C(=O)[O-])C[C@H]1O[C@@H](n2cnc3c(N)ncnc32)[C@H](O)[C@@H]1O (some centres unmarked) [H Succinyl H, SAM succinyl]
Fa at 2 h [2]: 25%
PRODUCT ABSORPTION intestine inside out [3, 6]: 0.016 nmoles/h/mg tissue

CCCCOC(=O)[C@@H](N)CC[S+](C)C[C@H]1O[C@@H](n2cnc3c(N)ncnc32)[C@H](O)[C@@H]1O (some centres unmarked) [C4 H9, SAM n-butyl ester]
degraded at 0.25 h ([1]; pH 2): 2%
degraded at 0.5 h ([1]; pH 2): 4%
degraded at 1 h ([1]; pH 2): 8%
degraded at 4 h ([1]; pH 2): 30%
degraded at 0.25 h ([1]; pH 3): 3%
degraded at 0.5 h ([1]; pH 3): 6%
degraded at 1 h ([1]; pH 3): 12%
degraded at 4 h ([1]; pH 3): 52%
degraded at 0.25 h ([1]; pH 4): 4%
degraded at 0.5 h ([1]; pH 4): 9%
degraded at 1 h ([1]; pH 4): 17%
degraded at 4 h ([1]; pH 4): 75%
Fa at 2 h [2]: 65%
PRODUCT ABSORPTION intestine inside out [3, 6]: 0.037 nmoles/h/mg tissue

CCCCCCOC(=O)[C@@H](N)CC[S+](C)C[C@H]1O[C@@H](n2cnc3c(N)ncnc32)[C@H](O)[C@@H]1O (some centres unmarked) [C6 H13 H H, SAM n-hexyl ester]
Fa at 2 h [2]: 67%
PRODUCT ABSORPTION intestine inside out [3, 6]: 0.023 nmoles/h/mg tissue

SAM n-dodecyl [H Dodecyl H]
PRODUCT ABSORPTION in sacs [4]: 65 % of dose
PRODUCT ABSORPTION intestine inside out [3, 6]: 0.019 nmoles/h/mg tissue

CCCCC(=O)N[C@@H](CC[S+](C)C[C@H]1O[C@@H](n2cnc3c(N)ncnc32)[C@H](OC(=O)CCCC)[C@@H]1OC(=O)CCCC)C(=O)[O-] (some centres unmarked) [H COC4 H9 COC4 H9]
Fa at 2 h [2]: 87%
PRODUCT ABSORPTION intestine inside out [3, 6]: 0.031 nmoles/h/mg tissue

C[S+](CC[C@H](NC(=O)CCCC(=O)O)C(=O)[O-])C[C@H]1O[C@@H](n2cnc3c(N)ncnc32)[C@H](O)[C@@H]1O (some centres unmarked) [H Glutaryl H, SAM glutaryl]
Fa at 2 h [2]: 23%
PRODUCT ABSORPTION intestine inside out [3, 6]: 0.018 nmoles/h/mg tissue

CC(=O)N[C@@H](CC[S+](C)C[C@H]1O[C@@H](n2cnc3c(N)ncnc32)[C@H](OC(C)=O)[C@@H]1OC(C)=O)C(=O)[O-] (some centres unmarked) [SAM triacetyl. 2 H2 SO4, SAM triacetyl]
degraded at 1440 h [5, 7]: 1%
degraded at 2880 h [5, 8]: 1.9%
degraded at 4320 h [5, 9]: 4.1%
degraded at 5760 h [5, 10]: 5.9%
degraded at 8640 h [5, 11]: 8%

SAM n-octyl [H Octyl H]
PRODUCT ABSORPTION in sacs [4]: 62 % of dose
PRODUCT ABSORPTION intestine inside out [3, 6]: 0.023 nmoles/h/mg tissue

C[S+](CC[C@H](NC(=O)c1ccccc1)C(=O)[O-])C[C@H]1O[C@@H](n2cnc3c(N)ncnc32)[C@H](O)[C@@H]1O (some centres unmarked) [H COC6 H5 H, SAM benzoyl]
Fa at 2 h [2]: 12%
PRODUCT ABSORPTION intestine inside out [3, 6]: 0.017 nmoles/h/mg tissue

CC(=O)N[C@@H](CC[S+](C)C[C@H]1O[C@@H](n2cnc3c(N)ncnc32)[C@H](OC(C)=O)[C@@H]1OC(C)=O)C(=O)[O-] (some centres unmarked) [H COCH3 COCH3, SAM triacetyl]
Fa at 2 h [2]: 65%
PRODUCT ABSORPTION intestine inside out [3, 6]: 0.047 nmoles/h/mg tissue

C[S+](CC[C@H](N)C(=O)[O-])C[C@H]1O[C@@H](n2cnc3c(N)ncnc32)[C@H](O)[C@@H]1O (some centres unmarked) [H, S-adenosylmethionine]
degraded at 0.25 h ([1]; pH 2): 80%
degraded at 0.5 h ([1]; pH 2): 100%
degraded at 1 h ([1]; pH 2): 100%
degraded at 4 h ([1]; pH 2): 100%
degraded at 0.25 h ([1]; pH 3): 90%
degraded at 0.5 h ([1]; pH 3): 100%
degraded at 1 h ([1]; pH 3): 100%
degraded at 4 h ([1]; pH 3): 100%
degraded at 0.25 h ([1]; pH 4): 100%
degraded at 0.5 h ([1]; pH 4): 100%
degraded at 1 h ([1]; pH 4): 100%
degraded at 4 h ([1]; pH 4): 100%
PRODUCT ABSORPTION intestine inside out [3]: 0.009 nmoles/h/mg tissue

Cc1ccc(S(=O)(=O)N[C@@H](CC[S+](C)C[C@H]2O[C@@H](n3cnc4c(N)ncnc43)[C@H](O)[C@@H]2O)C(=O)[O-])cc1 (some centres unmarked) [H p.tol. sulphon. H, SAM p-toluenesulphonyl]
Fa at 2 h [2]: 13%
PRODUCT ABSORPTION intestine inside out [3, 6]: 0.021 nmoles/h/mg tissue

COC(=O)[C@@H](N)CC[S+](C)C[C@H]1O[C@@H](n2cnc3c(N)ncnc32)[C@H](O)[C@@H]1O (some centres unmarked) [CH3, SAM methyl ester]
degraded at 0.25 h ([1]; pH 2): 5%
degraded at 0.5 h ([1]; pH 2): 10%
degraded at 1 h ([1]; pH 2): 21%
degraded at 4 h ([1]; pH 2): 75%
degraded at 0.25 h ([1]; pH 3): 6%
degraded at 0.5 h ([1]; pH 3): 13%
degraded at 1 h ([1]; pH 3): 25%
degraded at 4 h ([1]; pH 3): 100%
degraded at 0.25 h ([1]; pH 4): 8%
degraded at 0.5 h ([1]; pH 4): 18%
degraded at 1 h ([1]; pH 4): 40%
degraded at 4 h ([1]; pH 4): 100%
Fa at 2 h [2]: 55%
PRODUCT ABSORPTION intestine inside out [3, 6]: 0.078 nmoles/h/mg tissue

CC(=O)O[C@@H]1[C@H](OC(C)=O)[C@@H](C[S+](C)CC[C@H](NC(=O)CCC(=O)O)C(=O)[O-])O[C@H]1n1cnc2c(N)ncnc21 (some centres unmarked) [H Succinyl COCH3, SAM succinyl-diacetyl]
Fa at 2 h [2]: 91%
PRODUCT ABSORPTION intestine inside out [3, 6]: 0.035 nmoles/h/mg tissue

CC(=O)N[C@@H](CC[S+](C)C[C@H]1O[C@@H](n2cnc3c(N)ncnc32)[C@H](O)[C@@H]1O)C(=O)[O-] (some centres unmarked) [H COCH3 H, SAM monoacetyl]
Fa at 2 h [2]: 10%
PRODUCT ABSORPTION intestine inside out [3, 6]: 0.046 nmoles/h/mg tissue

CC(=O)N[C@@H](CC[S+](C)C[C@H]1O[C@@H](n2cnc3c(N)ncnc32)[C@H](O)[C@@H]1O)C(=O)[O-] (some centres unmarked) [SAM monoacetyl. 2 H2 SO4, SAM monoacetyl]
degraded at 1440 h [5, 7]: 0%
degraded at 2880 h [5, 8]: 1.4%
degraded at 4320 h [5, 9]: 3%
degraded at 5760 h [5, 10]: 4.6%
degraded at 8640 h [5, 11]: 5.5%

CCCCCOC(=O)[C@@H](N)CC[S+](C)C[C@H]1O[C@@H](n2cnc3c(N)ncnc32)[C@H](O)[C@@H]1O (some centres unmarked) [C5 H11 H H, SAM n-pentyl ester]
Fa at 2 h [2]: 68%
PRODUCT ABSORPTION intestine inside out [3, 6]: 0.025 nmoles/h/mg tissue

C[S+](CC[C@H](N)C(=O)[O-])C[C@H]1O[C@@H](n2cnc3c(N)ncnc32)[C@H](O)[C@@H]1O (some centres unmarked) [SAM. H2 SO4, S-adenosylmethionine]
degraded at 1440 h [5]: 80%
degraded at 2880 h [5]: 100%
degraded at 4320 h [5]: 100%
degraded at 5760 h [5]: 100%
degraded at 8640 h [5]: 100%

CCCCC(=O)N[C@@H](CC[S+](C)C[C@H]1O[C@@H](n2cnc3c(N)ncnc32)[C@H](O)[C@@H]1O)C(=O)[O-] (some centres unmarked) [H COC4 H9 H]
Fa at 2 h [2]: 18%
PRODUCT ABSORPTION intestine inside out [3, 6]: 0.028 nmoles/h/mg tissue

CCCOC(=O)[C@@H](N)CC[S+](C)C[C@H]1O[C@@H](n2cnc3c(N)ncnc32)[C@H](O)[C@@H]1O (some centres unmarked) [C3 H7 H H, SAM n-propyl ester]
Fa at 2 h [2]: 61%
PRODUCT ABSORPTION intestine inside out [3, 6]: 0.045 nmoles/h/mg tissue
